Measurements published in patent US20250100998A1, “PARP7 INHIBITORS” (Gilead Sciences, Inc., priority 2023, published 2025).

The molecules below were run on STAT1 (phosphorylated at Tyr701) in NCI-H1373 cells (assay: Phospho-STAT1 (Tyr701) LANCE Ultra TR-FRET detection assay). Settings: Homo sapiens, NCI-H1373, 48 h, induction of pSTAT1 in NCI-H1373 cells, 48 hours incubation; normalized to 10 uM positive control and DMSO; 4-parameter fit; read-out: NH1373 pSTAT1 EC50.
Format: cell-based
Experimental: Phospho-STAT1 (Tyr701 LANCE Ultra TR-FRET Detection Assay
LANCE Ultra phospho-STAT1 (Tyr701) kits are designed for the detection of phosphorylated STAT1 in cell lysates using a simple, homogeneous LANCE Ultra sandwich assay (Cat. #TRF4028M). This assay is intended for assessing compound induction of endogenous levels of cellular STAT1 (phosphorylated at Tyr701) in NCI-H1373 cells. The NCI-H1373 cells are cultured in RPMI 1640 media containing 10% heat inactivated FBS, GlutaMAX, 1% Penicillin-Streptomycin. An Echo acoustic liquid handler is used to transfer 60 nanoliters of compound dilutions using the Echo Qualified, 384-well polypropylene microplate clear flat bottom source plates into a Greiner (#781080) cell culture microplate. NCI-H1373 cells are seeded into these compound-spotted culture plates at 30,000 cells/well in a 60 uL volume in growth media. The plates are incubated in a 5% CO2 humidified incubator at 37° C. for 48 hours. […] Briefly, […] of supplemented lysis buffer is added to each well and allowed to shake for 1 hour at 400 rpm. Next, 5 ul of remixed antibody solutions (vol/vol) prepared in detection buffer are added to each well and allowed to incubate at room temperature overnight. After spinning the plate down at 300 rpm for 1 min, the plate is read on an EnVision plate reader set up for Eu3+ Cryptate and fluorescence emission is measured at two different wavelengths (665 nm and 620 nm). The HTRF ratio is then calculated ([…]) for each well to determine the amount of pSTAT1 in the cell lysate, and the data is then normalized to 10 uM (S)-5-((1-(3-oxo-3-(4-(5-(trifluoromethyl)pyrimidin-2-yl)piperazin-1-yl)propoxy)propan-2-yl)amino)-4-(trifluoromethyl)pyridazin-3(2H)-one positive and DMSO negative controls. The values were then plotted as a function of compound concentration and a 4-parameter fit was applied to derive the EC50 values.

| Compound | EC50 [nM] |
| --- | --- |
| O=c1[nH]ncc(N[C@@H]2C[C@H](Cn3ccc4cc(-c5ncc(C(F)(F)F)cn5)c(F)cc4c3=O)CC[C@@H]2O)c1C(F)(F)F (racemic) [Example 68, 7-fluoro-2-(((rac-1R,3R,4S)-4-hydroxy-3-((6-oxo-5-(trifluoromethyl)-1,6-dihydropyridazin-4-yl)amino)cyclohexyl)methyl)-6-(5-(trifluoromethyl)pyrimidin-2-yl)isoquinolin-1(2H)-one] | 65.1 |
| O=c1[nH]ncc(N[C@@H]2C[C@H](Cn3ccc4cc(-c5ncc(C(F)(F)F)cn5)c(F)cc4c3=O)CC(F)(F)C2)c1C(F)(F)F (single isomer, unassigned) [Example 66] | 29.2 |
| O=c1[nH]ncc(N[C@H]2C[C@@H](Cn3ccc4cc(-c5ncc(C(F)(F)F)cn5)c(F)cc4c3=O)CC(F)(F)C2)c1C(F)(F)F (single isomer, unassigned) [Example 67] | 100 |
| O=c1[nH]ncc(N[C@H]2CCC[C@@H](Cn3ccc4cc(-c5ncc(-n6cccn6)cn5)c(F)cc4c3=O)C2)c1C(F)(F)F [Example 1, 7-fluoro-2-[[(1R,3S)-3-[[6-oxo-5-(trifluoromethyl)-1H-pyridazin-4-yl]amino]cyclohexyl]methyl]-6-(5-pyrazol-1-ylpyrimidin-2-yl)isoquinolin-1-one] | 6.54 |
| N#Cc1cnc(-c2cc3ccn(C[C@@H]4CCC[C@H](Nc5cn[nH]c(=O)c5C(F)(F)F)C4)c(=O)c3cc2F)nc1 [Example 2, 2-(7-fluoro-1-oxo-2-(((1R,3S)-3-((6-oxo-5-(trifluoromethyl)-1,6-dihydropyridazin-4-yl)amino)cyclohexyl)methyl)-1,2-dihydroisoquinolin-6-yl)pyrimidine-5-carbonitrile] | 11.8 |
| COc1nc(-c2cc3ccn(C[C@@H]4CCC[C@H](Nc5cn[nH]c(=O)c5C(F)(F)F)C4)c(=O)c3cc2F)ncc1C#N [Example 3, 2-(7-fluoro-1-oxo-2-(((1R,3S)-3-((6-oxo-5-(trifluoromethyl)-1,6-dihydropyridazin-4-yl)amino)cyclohexyl)methyl)-1,2-dihydroisoquinolin-6-yl)-4-methoxypyrimidine-5-carbonitrile] | 3.85 |
| CC(F)(F)c1cnc(-c2cc3ccn(C[C@@H]4CCC[C@H](Nc5cn[nH]c(=O)c5C(F)(F)F)C4)c(=O)c3cc2F)nc1 [Example 4, 6-(5-(1,1-difluoroethyl)pyrimidin-2-yl)-7-fluoro-2-(((1R,3S)-3-((6-oxo-5-(trifluoromethyl)-1,6-dihydropyridazin-4-yl)amino)cyclohexyl)methyl)isoquinolin-1(2H)-one] | 2.26 |
| O=c1[nH]ncc(N[C@H]2CCC[C@@H](Cn3ccc4cc(-c5ncc(OC(F)F)cn5)c(F)cc4c3=O)C2)c1C(F)(F)F [Example 5, 6-(5-(difluoromethoxy)pyrimidin-2-yl)-7-fluoro-2-(((1R,3S)-3-((6-oxo-5-(trifluoromethyl)-1,6-dihydropyridazin-4-yl)amino)cyclohexyl)methyl)isoquinolin-1(2H)-one] | 4.74 |
| Cc1nc(-c2cc3ccn(C[C@@H]4CCC[C@H](Nc5cn[nH]c(=O)c5C(F)(F)F)C4)c(=O)c3cc2F)ncc1C(F)(F)F [Example 6, 7-fluoro-6-(4-methyl-5-(trifluoromethyl)pyrimidin-2-yl)-2-(((1R,3S)-3-((6-oxo-5-(trifluoromethyl)-1,6-dihydropyridazin-4-yl)amino)cyclohexyl)methyl)isoquinolin-1(2H)-one] | 5.13 |
| Cc1nc(-c2cc3ccn(C[C@@H]4CCC[C@H](Nc5cn[nH]c(=O)c5C(F)(F)F)C4)c(=O)c3cc2F)ncc1Cl [Example 7, 6-(5-chloro-4-methylpyrimidin-2-yl)-7-fluoro-2-(((1R,3S)-3-((6-oxo-5-(trifluoromethyl)-1,6-dihydropyridazin-4-yl)amino)cyclohexyl)methyl)isoquinolin-1(2H)-one] | 6.03 |
